This note sets out measurements from PMC3959898 (Molecular microbiology, 2014).

Experiment [1] addresses T1, CqsSVh (Vibrio campbellii, UniProt A7N6S2).
T1 sequence (A7N6S2 1-681): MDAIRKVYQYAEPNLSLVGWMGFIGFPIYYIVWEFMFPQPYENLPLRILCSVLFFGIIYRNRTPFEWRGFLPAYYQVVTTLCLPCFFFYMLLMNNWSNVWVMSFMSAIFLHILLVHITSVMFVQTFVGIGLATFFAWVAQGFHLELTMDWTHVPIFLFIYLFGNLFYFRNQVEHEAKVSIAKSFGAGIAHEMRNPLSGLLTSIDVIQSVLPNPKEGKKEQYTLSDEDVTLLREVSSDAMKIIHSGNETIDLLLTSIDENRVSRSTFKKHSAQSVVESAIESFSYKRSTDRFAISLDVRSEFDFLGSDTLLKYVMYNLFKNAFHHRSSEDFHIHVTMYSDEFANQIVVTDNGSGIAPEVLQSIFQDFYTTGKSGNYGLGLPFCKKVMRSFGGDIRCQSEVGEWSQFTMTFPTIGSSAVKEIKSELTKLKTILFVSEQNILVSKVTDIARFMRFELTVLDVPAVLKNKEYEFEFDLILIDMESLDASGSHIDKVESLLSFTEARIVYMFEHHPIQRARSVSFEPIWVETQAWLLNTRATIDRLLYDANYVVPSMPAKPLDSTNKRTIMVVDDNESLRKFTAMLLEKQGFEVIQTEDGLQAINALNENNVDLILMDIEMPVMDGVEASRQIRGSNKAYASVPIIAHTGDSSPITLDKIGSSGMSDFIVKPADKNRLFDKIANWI
In words: V. harveyi bioluminescent reporter strain expressing cqsSVh. Format: cell-based, Vibrio harveyi.

The subject of experiment [2] is CqsSPa. As to the kind of experiment: V. harveyi bioluminescent reporter strain expressing cqsSPa. The following applies: for EC50: dose-dependent bioluminescence response. Format: cell-based, Photobacterium angustum.
Experiment [3] deals with CqsSPa^S168C. The experiment is classed as cell-based, Photobacterium angustum. Particulars: Fig. S2.
The target of experiment [4] is CqsSVc (Vibrio cholerae serotype O1, UniProt Q9KM66). As to the kind of experiment: V. harveyi bioluminescent reporter strain expressing cqsSVc. The experiment is classed as cell-based.
Chain of CqsSVc (Q9KM66 whole entry, looked up): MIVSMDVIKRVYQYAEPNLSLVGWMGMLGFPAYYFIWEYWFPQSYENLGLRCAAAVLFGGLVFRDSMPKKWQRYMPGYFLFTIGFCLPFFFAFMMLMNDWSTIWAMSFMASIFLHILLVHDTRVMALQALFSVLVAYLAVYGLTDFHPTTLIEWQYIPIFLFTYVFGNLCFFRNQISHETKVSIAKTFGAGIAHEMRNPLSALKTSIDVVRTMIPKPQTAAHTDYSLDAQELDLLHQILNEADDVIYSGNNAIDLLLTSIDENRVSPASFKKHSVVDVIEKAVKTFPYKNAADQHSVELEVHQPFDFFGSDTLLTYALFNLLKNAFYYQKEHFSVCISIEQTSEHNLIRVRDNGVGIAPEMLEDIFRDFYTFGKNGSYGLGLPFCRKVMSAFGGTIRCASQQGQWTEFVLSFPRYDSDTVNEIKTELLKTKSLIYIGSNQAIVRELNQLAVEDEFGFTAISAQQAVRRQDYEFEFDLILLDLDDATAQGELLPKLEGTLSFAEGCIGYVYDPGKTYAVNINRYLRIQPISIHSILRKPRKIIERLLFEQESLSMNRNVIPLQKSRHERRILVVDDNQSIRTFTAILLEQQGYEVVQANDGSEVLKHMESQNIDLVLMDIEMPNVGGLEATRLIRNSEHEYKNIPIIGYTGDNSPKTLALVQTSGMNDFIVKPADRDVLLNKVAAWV

Usually EC50 stands for the midpoint of the concentration-response curve. In experiment [1], `C/C=C(\N)C(=O)CCCCCCC` [Ea-C8-CAI-1, (Z)-3-aminoundec-2-en-4-one] registered a concentration for a half-maximal effect (EC50) of 100 nM. Besides, the light production result in experiment [1] (reporter carrying cqsSVh, synthetic molecule at 5 μM) was “produced light”. For the same compound, the “response (light production) in dose-response” value in experiment [2] (reporter expressing CqsSPa) is “modest response”.
Turning to `CCCCCCCCCC(=O)[C@@H](O)CC` [C10-CAI-1, (S)-3-hydroxytridecan-4-one], the “detection of CAI-1 molecules” value in experiment [3] is on record as “retained the ability to detect”. Moreover, the EC50 in experiment [2] (reporter expressing CqsSPa) worked out at 12 nM. Besides, in experiment [2] (reporter carrying cqsSPa, synthetic molecule at 5 μM), the “increase in light production” value was ~ 1000 fold.
In the case of `C/C=C(\N)C(=O)CCCCCCCCC` [Ea-C10-CAI-1], the “detection of CAI-1 molecules” value in experiment [3] is listed as “retained the ability to detect”. In addition, the half-maximal effective concentration (EC50) turned out to be 150 nM in experiment [4] and 4 nM in experiment [2] (reporter expressing CqsSPa).
